Active and inactive are the calls of the source. The calls are words filed in the database; no cut-off is given here.
What was measured:
HEK293T [1] = assay: Inhibition of IRE1alpha phosphorylation in HEK293T cells at 100 nM pretreated with compound for 12 hrs followed by thapsigargin addition and measured after 24 hrs by immunoblotting analysis; type: cell-based; settings: Homo sapiens, time 36.0 hrs
[2] = biological target: T1, Eukaryotic translation initiation factor 2-alpha kinase 3 (Homo sapiens) (UniProt Q9NZJ5); assay: Inhibition of PERK phosphorylation in HEK293T cells at 100 nM pretreated with compound for 12 hrs followed by thapsigargin addition and measured after 24 hrs by immunoblotting analysis; type: cell-based; settings: time 36.0 hrs
T1 sequence (whole entry): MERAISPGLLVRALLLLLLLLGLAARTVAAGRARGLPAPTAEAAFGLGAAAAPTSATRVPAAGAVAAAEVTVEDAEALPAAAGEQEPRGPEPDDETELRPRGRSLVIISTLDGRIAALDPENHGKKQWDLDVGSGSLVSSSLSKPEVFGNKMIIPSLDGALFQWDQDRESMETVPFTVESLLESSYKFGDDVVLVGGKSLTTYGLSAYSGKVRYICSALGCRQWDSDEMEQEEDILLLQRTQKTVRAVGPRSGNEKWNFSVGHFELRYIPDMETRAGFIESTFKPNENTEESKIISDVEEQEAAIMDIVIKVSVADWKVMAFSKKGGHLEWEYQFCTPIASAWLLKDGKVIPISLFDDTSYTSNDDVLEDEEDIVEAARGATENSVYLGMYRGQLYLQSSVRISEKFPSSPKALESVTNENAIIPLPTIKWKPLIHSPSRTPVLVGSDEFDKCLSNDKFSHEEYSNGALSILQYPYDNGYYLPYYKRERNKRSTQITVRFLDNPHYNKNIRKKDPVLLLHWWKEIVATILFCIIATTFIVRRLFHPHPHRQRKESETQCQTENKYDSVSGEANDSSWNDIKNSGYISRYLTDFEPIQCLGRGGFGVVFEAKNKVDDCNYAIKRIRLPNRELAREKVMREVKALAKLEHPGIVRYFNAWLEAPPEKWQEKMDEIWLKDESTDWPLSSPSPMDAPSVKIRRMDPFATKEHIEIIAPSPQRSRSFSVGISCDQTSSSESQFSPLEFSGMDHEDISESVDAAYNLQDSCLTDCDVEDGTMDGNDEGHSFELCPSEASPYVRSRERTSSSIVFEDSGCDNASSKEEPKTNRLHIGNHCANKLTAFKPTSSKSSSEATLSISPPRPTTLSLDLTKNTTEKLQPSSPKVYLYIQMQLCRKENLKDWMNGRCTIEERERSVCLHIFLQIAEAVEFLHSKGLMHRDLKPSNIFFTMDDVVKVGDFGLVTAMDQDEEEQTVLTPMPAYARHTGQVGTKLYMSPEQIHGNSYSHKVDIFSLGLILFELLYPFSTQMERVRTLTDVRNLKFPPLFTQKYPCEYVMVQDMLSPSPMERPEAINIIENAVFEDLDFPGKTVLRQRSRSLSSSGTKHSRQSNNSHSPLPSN

[3] = biological target: Eukaryotic translation initiation factor 2 subunit 1 (Homo sapiens) (UniProt P05198); assay: Inhibition of eIF2alpha phosphorylation in HEK293T cells at 100 nM pretreated with compound for 12 hrs followed by thapsigargin addition and measured after 24 hrs by immunoblotting analysis; type: cell-based; settings: time 36.0 hrs
[4] = biological target: T2, Bifunctional epoxide hydrolase 2 (Mus musculus, UniProt P34914); assay: Inhibition of mouse recombinant sEH using fluorogenic substrate
T2 sequence (P34914 whole entry): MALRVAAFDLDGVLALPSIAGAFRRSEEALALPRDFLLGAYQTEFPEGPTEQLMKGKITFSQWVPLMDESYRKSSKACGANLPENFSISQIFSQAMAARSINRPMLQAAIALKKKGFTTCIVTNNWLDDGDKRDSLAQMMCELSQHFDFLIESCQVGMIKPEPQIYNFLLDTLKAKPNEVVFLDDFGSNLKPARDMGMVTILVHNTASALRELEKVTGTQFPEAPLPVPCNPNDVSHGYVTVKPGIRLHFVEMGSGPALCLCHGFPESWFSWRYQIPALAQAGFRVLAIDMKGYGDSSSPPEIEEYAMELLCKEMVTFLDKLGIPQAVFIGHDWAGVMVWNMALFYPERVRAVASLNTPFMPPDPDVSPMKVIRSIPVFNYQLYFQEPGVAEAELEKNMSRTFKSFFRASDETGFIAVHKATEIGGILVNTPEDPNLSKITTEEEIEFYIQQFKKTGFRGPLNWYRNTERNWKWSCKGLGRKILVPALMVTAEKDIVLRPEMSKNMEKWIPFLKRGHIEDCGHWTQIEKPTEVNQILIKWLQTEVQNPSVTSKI

[5] = Half life in male CD-1 mouse at 10 mg/kg, ip measured up to 24 hrs by LC-MS/MS analysis; type: ADME, organism-based; settings: in vivo
[6] = Tmax in male CD-1 mouse at 10 mg/kg, ip measured up to 24 hrs by LC-MS/MS analysis; type: ADME, organism-based; settings: in vivo
[7] = Cmax in male CD-1 mouse at 10 mg/kg, ip measured up to 24 hrs by LC-MS/MS analysis; type: ADME, organism-based; settings: in vivo
[8] = AUC (0 to infinity) in male CD-1 mouse at 10 mg/kg, ip measured up to 24 hrs by LC-MS/MS analysis; type: ADME, organism-based; settings: in vivo
[9] = MRT (0 to infinity) in male CD-1 mouse at 10 mg/kg, ip measured up to 24 hrs by LC-MS/MS analysis; type: ADME, organism-based; settings: in vivo
HepG2 = assay: Cytotoxicity against human HepG2 cells assessed as cell viability at 1 uM incubated for 24 hrs by MTT assay; settings: HepG2, 24 h, read-out: Activity
[10] = Chemical stability of compound in cell culture medium assessed as parent compound remaining measured for 24 hrs by LC-MS analysis; type: physicochemical; settings: read-out: Stability
[11] = biological target: Eukaryotic translation initiation factor 2 subunit 1 (Homo sapiens) (UniProt P05198); assay: Inhibition of eIF2alpha phosphorylation in HEK293T cells at 100 to 1000 nM pretreated with compound for 12 hrs followed by thapsigargin addition and measured after 24 hrs by immunoblotting analysis; type: cell-based; settings: dose 100-1000 nM, time 36.0 hrs
HEK293T [12] = assay: Inhibition of IRE1alpha phosphorylation in HEK293T cells at 100 to 1000 nM pretreated with compound for 12 hrs followed by thapsigargin addition and measured after 24 hrs by immunoblotting analysis; type: cell-based; settings: Homo sapiens, dose 100-1000 nM, time 36.0 hrs
[13] = Chemical stability of compound in cell culture medium assessed as half life measured for 24 hrs by LC-MS analysis; type: physicochemical
[14] = Metabolic stability in mouse liver microsome assessed as half life incubated for 5 to 45 mins in presence of NADPH by UPLC-MS/MS analysis; type: ADME; settings: liver microsomes, time 5-45 min
[15] = Metabolic stability in mouse liver microsome assessed as intrinsic clearance incubated for 5 to 45 mins in presence of NADPH by UPLC-MS/MS analysis; type: ADME; settings: liver microsomes, time 5-45 min, read-out: CLH
[16] = Metabolic stability in mouse liver microsome assessed as parent compound remaining incubated for 5 to 45 mins in absence of NADPH by UPLC-MS/MS analysis; type: ADME; settings: microsomes, time 5-45 min
[17] = biological target: T1, Eukaryotic translation initiation factor 2-alpha kinase 3 (Homo sapiens); assay: Inhibition of PERK phosphorylation in HEK293T cells at 100 to 1000 nM pretreated with compound for 12 hrs followed by thapsigargin addition and measured after 24 hrs by immunoblotting analysis; type: cell-based; settings: dose 100-1000 nM, time 36.0 hrs
HEK-293T [18] = assay: Induction of apoptosis in HEK293T cells assessed as chromatin condensation by measuring improvement in cell survival pretreated with compound for 12 hrs followed by thapsigargin addition and measured after 24 hrs by Hoechst33258 staining based analysis; type: functional; settings: Homo sapiens, time 36.0 hrs
HEK-293T [19] = assay: Induction of apoptosis in HEK293T cells assessed as reduction in thapsigargin-induced cell death pretreated with compound for 12 hrs followed by thapsigargin addition and measured after 24 hrs by propidium iodide staining based analysis; type: functional; settings: Homo sapiens, time 36.0 hrs
[20] = biological target: T3, Protein cereblon/Bifunctional epoxide hydrolase 2 (Mus musculus) (UniProt P34914+Q8C7D2); assay: In-vivo PROTAC activity at sEH/CRBN in Male C57BL/6J mouse assessed as reduction in sEH level in liver at 12 mg/kg, ip measured after 24 hrs by immunoblotting analysis; type: functional, organism-based
[21] = biological target: T3, Protein cereblon/Bifunctional epoxide hydrolase 2 (Mus musculus); assay: In-vivo PROTAC activity at sEH/CRBN in Male C57BL/6J mouse assessed as reduction in sEH level in BAT at 12 mg/kg, ip measured after 24 hrs by immunoblotting analysis; type: functional, organism-based

T3 sequence (Q8C7D2 whole entry, looked up, one chain of several): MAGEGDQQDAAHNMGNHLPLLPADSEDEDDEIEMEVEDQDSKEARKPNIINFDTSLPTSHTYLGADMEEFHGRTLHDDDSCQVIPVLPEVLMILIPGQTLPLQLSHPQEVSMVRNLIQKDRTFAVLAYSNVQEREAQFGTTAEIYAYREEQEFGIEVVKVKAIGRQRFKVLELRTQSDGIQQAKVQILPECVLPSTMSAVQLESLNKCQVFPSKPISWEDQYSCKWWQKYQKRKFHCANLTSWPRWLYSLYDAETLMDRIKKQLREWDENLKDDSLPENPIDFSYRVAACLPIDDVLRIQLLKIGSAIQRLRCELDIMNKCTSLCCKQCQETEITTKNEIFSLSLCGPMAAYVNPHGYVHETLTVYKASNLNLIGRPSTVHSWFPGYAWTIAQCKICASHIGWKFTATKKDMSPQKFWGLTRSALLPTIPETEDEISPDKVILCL
Chain of Eukaryotic translation initiation factor 2 subunit 1 (Homo sapiens) (P05198 whole entry): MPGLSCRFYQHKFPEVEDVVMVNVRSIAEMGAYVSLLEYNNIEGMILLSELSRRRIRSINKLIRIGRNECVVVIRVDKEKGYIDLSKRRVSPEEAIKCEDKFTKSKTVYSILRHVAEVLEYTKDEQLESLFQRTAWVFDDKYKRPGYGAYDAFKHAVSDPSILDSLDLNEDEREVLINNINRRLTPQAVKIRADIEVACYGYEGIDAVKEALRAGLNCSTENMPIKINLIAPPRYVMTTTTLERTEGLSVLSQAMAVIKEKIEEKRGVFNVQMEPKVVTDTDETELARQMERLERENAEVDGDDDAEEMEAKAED

SMILES: O=C(Nc1ccc(OC(F)(F)F)cc1)N[C@H]1CC[C@H](Oc2ccc(C(=O)O)cc2)CC1
- inhibition (HEK293T [1]): inactive
- inhibition [2]: inactive
- inhibition [3]: inactive

SMILES: O=C1CCC(N2C(=O)c3ccc(N4CCN(CC5CCN(C(=O)CCCCCCCCC(=O)N6CCC(NC(=O)Nc7ccc(OC(F)(F)F)cc7)CC6)CC5)CC4)cc3C2=O)C(=O)N1 (stereo unspecified)
- IC50 [4]: 4.6 nM
- half-life [5]: 5.8 h
- Tmax [6]: 0.33 h
- Cmax [7]: 3000 ng/mL
- AUC(0-inf) [8]: 61000 ng·h/mL
- MRT inf [9]: 4 h

SMILES: O=C1CCC(N2Cc3cc(N4CCN(C(=O)CCCCCCCCNC(=O)c5ccc(O[C@H]6CC[C@H](NC(=O)Nc7ccc(OC(F)(F)F)cc7)CC6)cc5)CC4)ccc3C2=O)C(=O)N1 (stereo partly specified)
- IC50 [4]: 2.8 nM
- viability at 1 µM (HepG2): 46%
- remaining at 24 h [10]: 57%

SMILES: O=C1CCC(N2C(=O)c3cccc(N4CCN(C(=O)CCCCCCCCNC(=O)c5ccc(O[C@H]6CC[C@H](NC(=O)Nc7ccc(OC(F)(F)F)cc7)CC6)cc5)CC4)c3C2=O)C(=O)N1 (stereo partly specified)
- IC50 [4]: 0.9 nM
- viability at 1 µM (HepG2): -47%

SMILES: O=C1CCC(N2C(=O)c3cc(F)c(N4CCN(C(=O)CCCCCCCCNC(=O)c5ccc(O[C@H]6CC[C@H](NC(=O)Nc7ccc(OC(F)(F)F)cc7)CC6)cc5)CC4)cc3C2=O)C(=O)N1 (stereo partly specified)
- IC50 [4]: 2.2 nM
- viability at 1 µM (HepG2): -6%

SMILES: O=C1CCC(N2C(=O)c3cccc(N4CCN(CC5CCN(C(=O)CCCCCCCCNC(=O)c6ccc(O[C@H]7CC[C@H](NC(=O)Nc8ccc(OC(F)(F)F)cc8)CC7)cc6)CC5)CC4)c3C2=O)C(=O)N1 (stereo partly specified)
- IC50 [4]: 1.8 nM
- viability at 1 µM (HepG2): 24%

SMILES: O=C1CCC(N2C(=O)c3ccc(N4CCN(CC5CCN(C(=O)CCCCCCCCNC(=O)c6ccc(O[C@H]7CC[C@H](NC(=O)Nc8ccc(OC(F)(F)F)cc8)CC7)cc6)CC5)CC4)cc3C2=O)C(=O)N1 (stereo partly specified)
- inhibition [11]: Active
- inhibition (HEK293T [12]): Active
- IC50 [4]: 210 nM
- half-life [13]: > 24 h
- half-life [14]: > 2 h
- CLint scaled [15]: 43 mL/min/kg
- Stability [16]: > 99%
- inhibition [17]: Active
- Activity (HEK-293T [18]): Active
- Activity (HEK-293T [19]): Active
- viability at 1 µM (HepG2): -38%
- half-life [5]: 12 h
- Tmax [6]: 6.7 h
- Cmax [7]: 2800 ng/mL
- AUC(0-inf) [8]: 58000 ng·h/mL
- MRT inf [9]: 17 h
- Activity [20]: Active
- Activity [21]: Active

Reference: ChEMBL document CHEMBL6071207, “In Vivo-Active Soluble Epoxide Hydrolase-Targeting PROTACs with Improved Potency and Stability” (ACS Med Chem Lett, 2024)
